Measurements as given in ChEMBL document CHEMBL1201862, “PubChem BioAssay data set” (2004).
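Cultured in 96-well plates, cells were exposed to test compound for 48 hours across five concentrations. GI50 = concentration required for 50% inhibition of growth.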 Active and inactive are the calls of the source. Rule as the data show it: active = GI50 up to about 1.1 µM and inactive = higher.

What was measured:
Experiment in all cases: inhibition of tumour cell growth, NCI panel, 48 h
CAKI-1 = tested on: CAKI-1
CCRF-CEM = tested on: CCRF-CEM
DU-145 = tested on: DU-145
HL-60 = tested on: HL-60
HOP-62 = tested on: HOP-62
K562 = tested on: K562
KM12 = tested on: KM12
LOX IMVI = tested on: LOX IMVI
MCF7 = tested on: MCF7
NCI-H226 = tested on: NCI-H226
NCI-H23 = tested on: NCI-H23
OVCAR-4 = tested on: OVCAR-4
OVCAR-5 = tested on: OVCAR-5
PC-3 = tested on: PC-3
SF-539 = tested on: SF-539
SK-MEL-28 = tested on: SK-MEL-28
SNB-19 = tested on: SNB-19
SR = tested on: SR
NCI/ADR-RES = tested on: NCI/ADR-RES

Structure (SMILES)	GI50 (CAKI-1)	GI50 (CCRF-CEM)	GI50 (DU-145)	GI50 (HL-60)	GI50 (HOP-62)	GI50 (K562)	GI50 (KM12)	GI50 (LOX IMVI)	GI50 (MCF7)	GI50 (NCI-H226)	GI50 (NCI-H23)	GI50 (OVCAR-4)	GI50 (OVCAR-5)	GI50 (PC-3)	GI50 (SF-539)	GI50 (SK-MEL-28)	GI50 (SNB-19)	GI50 (SR)	GI50 (NCI/ADR-RES)
COc1ccc2cc(CNCCCCCCNC(=O)Nc3cccc4ccccc34)ccc2c1	> 100 µM (inactive)	> 100 µM (inactive)	> 100 µM (inactive)	> 100 µM (inactive)	> 100 µM (inactive)	> 100 µM (inactive)	> 100 µM (inactive)	> 100 µM (inactive)	> 100 µM (inactive)	> 100 µM (inactive)	> 100 µM (inactive)	> 100 µM (inactive)	> 100 µM (inactive)	> 100 µM (inactive)	> 100 µM (inactive)	> 100 µM (inactive)	> 100 µM (inactive)	> 100 µM (inactive)	–
CC(=O)C1C(=O)C(=O)N(c2ccc(Br)cc2)C1=O (stereo not drawn)	> 100 µM (inactive)	> 100 µM (inactive)	> 100 µM (inactive)	> 100 µM (inactive)	> 100 µM (inactive)	–	> 100 µM (inactive)	> 100 µM (inactive)	> 100 µM (inactive)	> 100 µM (inactive)	> 100 µM (inactive)	> 100 µM (inactive)	> 100 µM (inactive)	> 100 µM (inactive)	> 100 µM (inactive)	> 100 µM (inactive)	> 100 µM (inactive)	–	> 100 µM (inactive)
CCCCCCCCCCCCOP(=O)(O)OP(=O)(O)OCC1OC(n2ccc(N)nc2=O)CC1O (stereo not drawn)	> 100 µM (inactive)	> 100 µM (inactive)	–	> 100 µM (inactive)	> 100 µM (inactive)	> 100 µM (inactive)	> 100 µM (inactive)	> 100 µM (inactive)	> 100 µM (inactive)	> 100 µM (inactive)	> 100 µM (inactive)	> 100 µM (inactive)	> 100 µM (inactive)	> 100 µM (inactive)	> 100 µM (inactive)	> 100 µM (inactive)	> 100 µM (inactive)	–	> 100 µM (inactive)
COc1cc(Nc2nnc3n2S(=O)(=O)c2cc(C)c(Cl)cc2S3)cc(OC)c1	8.55 µM (inactive)	4.29 µM (inactive)	10.7 µM (inactive)	8.69 µM (inactive)	11.9 µM (inactive)	13.2 µM (inactive)	23.4 µM (inactive)	–	13.6 µM (inactive)	16.4 µM (inactive)	6.25 µM (inactive)	4.3 µM (inactive)	62.2 µM (inactive)	8.83 µM (inactive)	2.12 µM (inactive)	26 µM (inactive)	13.3 µM (inactive)	–	15.6 µM (inactive)
O=c1[nH]c(=O)c2ncn(-c3ccc([N+](=O)[O-])cn3)c2[nH]1	> 100 µM (inactive)	> 100 µM (inactive)	> 100 µM (inactive)	> 100 µM (inactive)	> 100 µM (inactive)	> 100 µM (inactive)	> 100 µM (inactive)	> 100 µM (inactive)	> 100 µM (inactive)	> 100 µM (inactive)	> 100 µM (inactive)	> 100 µM (inactive)	> 100 µM (inactive)	> 100 µM (inactive)	> 100 µM (inactive)	> 100 µM (inactive)	> 100 µM (inactive)	–	> 100 µM (inactive)
CC(C)(C)C(=O)OCC(COC(=O)C(C)(C)C)[N+](=O)[O-]	> 100 µM (inactive)	41.9 µM (inactive)	–	27.4 µM (inactive)	–	47.6 µM (inactive)	> 100 µM (inactive)	> 100 µM (inactive)	–	> 100 µM (inactive)	> 100 µM (inactive)	> 100 µM (inactive)	> 100 µM (inactive)	–	> 100 µM (inactive)	> 100 µM (inactive)	> 100 µM (inactive)	42.4 µM (inactive)	–
COc1ccc(/C=C2\N=C3NC(=O)C(N4CCOCC4)=C(N)N3C2=O)cc1	> 100 µM (inactive)	> 100 µM (inactive)	> 100 µM (inactive)	48.9 µM (inactive)	–	6.7 µM (inactive)	> 100 µM (inactive)	> 100 µM (inactive)	> 100 µM (inactive)	> 100 µM (inactive)	> 100 µM (inactive)	31.8 µM (inactive)	> 100 µM (inactive)	–	> 100 µM (inactive)	> 100 µM (inactive)	96.8 µM (inactive)	29.9 µM (inactive)	> 100 µM (inactive)
O=C(Cn1c2ccc(Br)cc2c2nc3ccccc3nc21)NNC(=S)NC1CCCCC1	18 µM (inactive)	0.794 µM (active)	15.5 µM (inactive)	–	13.6 µM (inactive)	13.3 µM (inactive)	18.7 µM (inactive)	12.4 µM (inactive)	–	15.4 µM (inactive)	14.4 µM (inactive)	12.6 µM (inactive)	19.5 µM (inactive)	11.7 µM (inactive)	–	14.7 µM (inactive)	13.3 µM (inactive)	–	17.3 µM (inactive)
CC1=NN(c2nc(N)nc(-c3sccc3N)n2)C(C)(C)C1	> 100 µM (inactive)	43.6 µM (inactive)	> 100 µM (inactive)	71.3 µM (inactive)	> 100 µM (inactive)	44.1 µM (inactive)	46.1 µM (inactive)	90.4 µM (inactive)	78 µM (inactive)	33.1 µM (inactive)	64.9 µM (inactive)	21.7 µM (inactive)	> 100 µM (inactive)	–	> 100 µM (inactive)	40.2 µM (inactive)	> 100 µM (inactive)	–	37.1 µM (inactive)
Cn1/c(=N\c2ccccc2[N+](=O)[O-])sc2ccccc21	43.9 µM (inactive)	> 100 µM (inactive)	> 100 µM (inactive)	> 100 µM (inactive)	20.6 µM (inactive)	> 100 µM (inactive)	1.6 µM (inactive)	> 100 µM (inactive)	–	34.9 µM (inactive)	26 µM (inactive)	16.1 µM (inactive)	22 µM (inactive)	66.1 µM (inactive)	28.2 µM (inactive)	89.7 µM (inactive)	36.1 µM (inactive)	> 100 µM (inactive)	95.9 µM (inactive)
O=[N+]([O-])C1(CO)COC(CCc2ccccc2)OC1 (stereo not drawn)	–	> 100 µM (inactive)	–	> 100 µM (inactive)	> 100 µM (inactive)	> 100 µM (inactive)	> 100 µM (inactive)	> 100 µM (inactive)	–	–	> 100 µM (inactive)	> 100 µM (inactive)	> 100 µM (inactive)	–	> 100 µM (inactive)	> 100 µM (inactive)	–	> 100 µM (inactive)	–
COc1cc(O)c2c(c1)C(=O)c1cc3c(c(O)c1C2=O)C(OC1OC(C)C(OC)C(O)C1OC)C(OC)C(C)(O)C3=O (stereo not drawn)	3.04 µM (inactive)	4.1 µM (inactive)	–	2.79 µM (inactive)	5.46 µM (inactive)	3.58 µM (inactive)	3.7 µM (inactive)	2.7 µM (inactive)	5.58 µM (inactive)	2.59 µM (inactive)	5.86 µM (inactive)	4.03 µM (inactive)	16.1 µM (inactive)	3.36 µM (inactive)	3.92 µM (inactive)	7.01 µM (inactive)	6.53 µM (inactive)	1.64 µM (inactive)	–
O=C1CSC(c2c[nH]c3ccccc23)N1c1cccc(Cl)c1 (stereo not drawn)	–	31.9 µM (inactive)	> 100 µM (inactive)	36.6 µM (inactive)	54.7 µM (inactive)	41 µM (inactive)	50.1 µM (inactive)	–	39.6 µM (inactive)	66.5 µM (inactive)	54 µM (inactive)	38 µM (inactive)	73.8 µM (inactive)	–	61.1 µM (inactive)	> 100 µM (inactive)	68.2 µM (inactive)	–	36.1 µM (inactive)
CC(C(=O)N1C(=O)N(C(=O)[C@H](C)C(O)c2ccccc2)[C@H](c2ccccc2)[C@H]1c1ccccc1)[C@@H](O)c1ccccc1 (stereo partly drawn)	20 µM (inactive)	–	50.5 µM (inactive)	22 µM (inactive)	37.1 µM (inactive)	17.5 µM (inactive)	31.2 µM (inactive)	–	26.6 µM (inactive)	27 µM (inactive)	44.4 µM (inactive)	26.5 µM (inactive)	25.2 µM (inactive)	9.79 µM (inactive)	22.2 µM (inactive)	> 100 µM (inactive)	37.2 µM (inactive)	0.118 µM (active)	–
COc1ccc(NC(=O)/C(O)=C/C(=O)c2ccccc2)cc1	> 10 µM (inactive)	2.53 µM (inactive)	> 10 µM (inactive)	> 10 µM (inactive)	> 10 µM (inactive)	> 10 µM (inactive)	> 10 µM (inactive)	1.96 µM (inactive)	> 10 µM (inactive)	–	> 10 µM (inactive)	> 10 µM (inactive)	–	> 10 µM (inactive)	–	> 10 µM (inactive)	–	1.74 µM (inactive)	–
CC1(C2COC(=O)C2)SCCCS1 (stereo not drawn)	> 100 µM (inactive)	> 100 µM (inactive)	–	> 100 µM (inactive)	> 100 µM (inactive)	–	98.4 µM (inactive)	> 100 µM (inactive)	–	> 100 µM (inactive)	> 100 µM (inactive)	> 100 µM (inactive)	–	–	> 100 µM (inactive)	> 100 µM (inactive)	> 100 µM (inactive)	> 100 µM (inactive)	–
CCOC(=O)c1cn2c(n1)sc1cccc(C)c12	> 100 µM (inactive)	–	> 100 µM (inactive)	–	> 100 µM (inactive)	–	> 100 µM (inactive)	> 100 µM (inactive)	> 100 µM (inactive)	> 100 µM (inactive)	> 100 µM (inactive)	–	> 100 µM (inactive)	> 100 µM (inactive)	> 100 µM (inactive)	–	> 100 µM (inactive)	–	> 100 µM (inactive)
